Consider 4 compounds from US20230114728A1 (Venatorx Pharmaceuticals, Inc., priority 2019, published 2023).

As usually defined, the EC50 is the concentration needed to bring the measured effect to its halfway point.

Converted amounts (≈) assume the structure as drawn.

In one test the target is T1, E. coli K12 PBP3 (Escherichia coli, UniProt P0AD68).
T1 construct: made in house
The test can be described thus: biochemical. Format: binding. The method in brief: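 A. baumannii PBP2 (2.5 μM) and PBP3 (0.2 μM) were run in 25 mM Tris pH 8.0 buffer with Tween 20; E. coli PBP3 (1.5 μM) and N. gonorrhoeae PBP2 ([…]) in 50 mM Hepes pH 8.0 buffer.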

For test [1], the system named is N. gonorrhoeae ATCC 49226. The test can be described thus: Liquid broth MIC in Fastidious broth. The conditions noted are these: Neisseria gonorrhoeae, ATCC49226; N. gonorrhoeae strain ATCC 49226; Fastidious broth; read-out: Minimum Inhibitory Concentration, N. gonorrhoeae ATCC 49226. It counts as cell-based. In outline: (§1)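 Colonies were swabbed from chocolate agar after 24 h growth and standardised by optical density at 600 nm. Compounds were serially diluted twofold in Fastidious broth, and bacteria added to give 5×10^5 CFU/mL. After about 24 h at 36 °C in 5% CO2, the lowest concentration allowing under 10% growth was taken as MIC.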

In another test the test system is N. gonorrhoeae WHO L. The test can be described thus: Liquid broth MIC in Fastidious broth. Format: cell-based. The conditions noted are these: Neisseria gonorrhoeae; N. gonorrhoeae strain WHO L; Fastidious broth; read-out: Minimum Inhibitory Concentration, N. gonorrhoeae WHO L. In outline: as §1
The test system of a further test is N. gonorrhoeae WHO K. The test can be described thus: Liquid broth MIC in Fastidious broth. Format: cell-based. The conditions noted are these: Neisseria gonorrhoeae, read-out: Minimum Inhibitory Concentration, N. gonorrhoeae WHO K. In outline:
as §1

The subject of the next test is N. gonorrhoeae H041. The test can be described thus: Liquid broth MIC in Fastidious broth. It counts as cell-based. The settings on record: Neisseria gonorrhoeae, H041, read-out: Minimum Inhibitory Concentration, N. gonorrhoeae H041. In outline:
as §1

The test system of another test is N. gonorrhoeae WHO Q. The test can be described thus: Liquid broth MIC in Fastidious broth. It counts as cell-based. The settings on record: Neisseria gonorrhoeae, read-out: Minimum Inhibitory Concentration, N. gonorrhoeae WHO Q. In outline:
as §1

In the next test the test system is N. gonorrhoeae FA1090. The test can be described thus: Liquid broth MIC in Fastidious broth. Format: cell-based. The settings on record: Neisseria gonorrhoeae; N. gonorrhoeae strain FA1090; Fastidious broth; read-out: Minimum Inhibitory Concentration, N. gonorrhoeae FA1090. The method in brief:
as §1

For the next test, the system named is N. gonorrhoeae WHO Z. Description: Liquid broth MIC in Fastidious broth. Format: cell-based. The conditions noted are these: Neisseria gonorrhoeae, read-out: Minimum Inhibitory Concentration, N. gonorrhoeae WHO Z. In outline: as §1
A further test deals with N. gonorrhoeae WHO G. Description: Liquid broth MIC in Fastidious broth. It counts as cell-based. The conditions noted are these: Neisseria gonorrhoeae; N. gonorrhoeae strain WHO G; Fastidious broth; read-out: Minimum Inhibitory Concentration, N. gonorrhoeae WHO G. The method in brief:
as §1

T1 sequence (P0AD68 1-577): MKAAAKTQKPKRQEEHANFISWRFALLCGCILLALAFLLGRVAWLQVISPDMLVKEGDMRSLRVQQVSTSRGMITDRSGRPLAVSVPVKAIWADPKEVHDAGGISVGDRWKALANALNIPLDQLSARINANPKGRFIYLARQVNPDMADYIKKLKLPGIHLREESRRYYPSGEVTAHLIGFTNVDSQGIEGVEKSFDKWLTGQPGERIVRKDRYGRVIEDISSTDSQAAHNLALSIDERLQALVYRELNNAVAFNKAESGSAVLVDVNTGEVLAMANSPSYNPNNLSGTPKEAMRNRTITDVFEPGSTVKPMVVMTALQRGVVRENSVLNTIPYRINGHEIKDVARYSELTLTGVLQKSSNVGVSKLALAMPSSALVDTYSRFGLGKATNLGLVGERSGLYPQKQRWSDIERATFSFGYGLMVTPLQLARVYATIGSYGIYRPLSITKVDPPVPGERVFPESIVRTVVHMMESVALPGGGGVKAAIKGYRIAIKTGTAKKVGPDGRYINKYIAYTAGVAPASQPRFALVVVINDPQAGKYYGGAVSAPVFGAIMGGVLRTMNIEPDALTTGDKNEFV

In the case of `CCN1CCN(C(=O)NC(C(=O)N[C@H]2Cc3cccc(C(=O)O)c3OB2O)c2c(F)cc(NS(N)(=O)=O)cc2F)C(=O)C1=O` (stereo partly drawn) [Example 176, (3R)-3-(2-(2,6-difluoro-4-(sulfamoylamino)phenyl)-2-(4-ethyl-2,3-dioxopiperazine-1-carboxamido)acetamido)-2-hydroxy-3,4-dihydro-2H-benzo[e][1,2]oxaborinine-8-carboxylic acid], at E. coli K12 PBP3, the EC50 was less than 30 µM. Further, the MIC is 4 to 8 µg/mL (≈ 6.27 to 12.5 µM) in [1]; greater than 64 µg/mL with N. gonorrhoeae WHO L; greater than 64 µg/mL in the test with N. gonorrhoeae WHO K; greater than 64 µg/mL with N. gonorrhoeae H041; greater than 64 µg/mL in the test on N. gonorrhoeae WHO Q; 0.25 to 0.5 µg/mL (≈ 0.392 to 0.783 µM) in the test with N. gonorrhoeae FA1090. The MIC in the test on N. gonorrhoeae WHO Z is 16 to 32 µg/mL (≈ 25.1 to 50.1 µM); in the test with N. gonorrhoeae WHO G, 4 to 8 µg/mL (≈ 6.27 to 12.5 µM).

Take `NCCN1CCN(C(=O)NC(C(=O)N[C@H]2Cc3cccc(C(=O)O)c3OB2O)c2c(F)cc(NS(N)(=O)=O)cc2F)C(=O)C1=O` (stereo partly drawn) [Example 177, (3R)-3-(2-(4-(2-aminoethyl)-2,3-dioxopiperazine-1-carboxamido)-2-(2,6-difluoro-4-(sulfamoylamino)phenyl)acetamido)-2-hydroxy-3,4-dihydro-2H-benzo[e][1,2]oxaborinine-8-carboxylic acid]: on E. coli K12 PBP3, the EC50 lay in the range of 30 to 500 µM. The MIC in [1] is greater than 64 µg/mL; in the test with N. gonorrhoeae WHO L, greater than 64 µg/mL; in the test with N. gonorrhoeae WHO K it was greater than 64 µg/mL; in the test on N. gonorrhoeae H041, greater than 64 µg/mL; in the test with N. gonorrhoeae WHO Q, greater than 64 µg/mL; in the test on N. gonorrhoeae FA1090, 4 to 8 µg/mL (≈ 6.12 to 12.2 µM). The MIC is greater than 64 µg/mL in the test with N. gonorrhoeae WHO Z and 16 to 32 µg/mL (≈ 24.5 to 49 µM) in the test on N. gonorrhoeae WHO G.

At E. coli K12 PBP3, `NCCCN1CCN(C(=O)NC(C(=O)N[C@H]2Cc3ccc(F)c(C(=O)O)c3OB2O)c2c(F)cc(O)cc2F)C(=O)C1=O` (stereo partly drawn) [Example 178, (3R)-3-(2-(4-(3-aminopropyl)-2,3-dioxopiperazine-1-carboxamido)-2-(2,6-difluoro-4-hydroxyphenyl)acetamido)-7-fluoro-2-hydroxy-3,4-dihydro-2H-benzo[e][1,2]oxaborinine-8-carboxylic acid] registered an EC50 of less than 30 µM. The MIC in [1] is 16 to 32 µg/mL (≈ 26.3 to 52.7 µM); with N. gonorrhoeae WHO L it was greater than 64 µg/mL; in the test on N. gonorrhoeae WHO K, greater than 64 µg/mL; in the test on N. gonorrhoeae H041 it was greater than 64 µg/mL; in the test on N. gonorrhoeae WHO Q, greater than 64 µg/mL; in the test on N. gonorrhoeae FA1090 it was 4 to 8 µg/mL (≈ 6.59 to 13.2 µM). Further, the MIC with N. gonorrhoeae WHO Z was greater than 64 µg/mL; in the test on N. gonorrhoeae WHO G it was 16 to 32 µg/mL (≈ 26.3 to 52.7 µM).

For `CCN1CCN(C(=O)NC(C(=O)N[C@H]2Cc3cccc(C(=O)O)c3OB2O)c2c(F)cc(N)cc2F)C(=O)C1=O` (stereo partly drawn) [Example 181, (3R)-3-(2-(4-amino-2,6-difluorophenyl)-2-(4-ethyl-2,3-dioxopiperazine-1-carboxamido)acetamido)-2-hydroxy-3,4-dihydro-2H-benzo[e][1,2]oxaborinine-8-carboxylic acid], on E. coli K12 PBP3, the EC50 was less than 30 µM. The MIC in [1] was 4 to 8 µg/mL (≈ 7.15 to 14.3 µM); in the test on N. gonorrhoeae WHO L, 16 to 32 µg/mL (≈ 28.6 to 57.2 µM); with N. gonorrhoeae WHO K, 16 to 32 µg/mL (≈ 28.6 to 57.2 µM); with N. gonorrhoeae H041 it was greater than 64 µg/mL; in the test on N. gonorrhoeae WHO Q it was 16 to 32 µg/mL (≈ 28.6 to 57.2 µM); in the test with N. gonorrhoeae FA1090, 0.25 to 0.5 µg/mL (≈ 0.447 to 0.894 µM). In addition, the MIC in the test on N. gonorrhoeae WHO Z lay in the range of 16 to 32 µg/mL (≈ 28.6 to 57.2 µM); in the test on N. gonorrhoeae WHO G, 1 to 2 µg/mL (≈ 1.79 to 3.58 µM).
